Molecular target: ULK1 (Homo sapiens (Human), UniProt O75385)
Assay: ULK1 inhibition assay (Table 1)
Assay type: biochemical
Conditions: * = tested as a mixture of regioisomers

ULK1, sequence (O75385 whole entry, species assumed): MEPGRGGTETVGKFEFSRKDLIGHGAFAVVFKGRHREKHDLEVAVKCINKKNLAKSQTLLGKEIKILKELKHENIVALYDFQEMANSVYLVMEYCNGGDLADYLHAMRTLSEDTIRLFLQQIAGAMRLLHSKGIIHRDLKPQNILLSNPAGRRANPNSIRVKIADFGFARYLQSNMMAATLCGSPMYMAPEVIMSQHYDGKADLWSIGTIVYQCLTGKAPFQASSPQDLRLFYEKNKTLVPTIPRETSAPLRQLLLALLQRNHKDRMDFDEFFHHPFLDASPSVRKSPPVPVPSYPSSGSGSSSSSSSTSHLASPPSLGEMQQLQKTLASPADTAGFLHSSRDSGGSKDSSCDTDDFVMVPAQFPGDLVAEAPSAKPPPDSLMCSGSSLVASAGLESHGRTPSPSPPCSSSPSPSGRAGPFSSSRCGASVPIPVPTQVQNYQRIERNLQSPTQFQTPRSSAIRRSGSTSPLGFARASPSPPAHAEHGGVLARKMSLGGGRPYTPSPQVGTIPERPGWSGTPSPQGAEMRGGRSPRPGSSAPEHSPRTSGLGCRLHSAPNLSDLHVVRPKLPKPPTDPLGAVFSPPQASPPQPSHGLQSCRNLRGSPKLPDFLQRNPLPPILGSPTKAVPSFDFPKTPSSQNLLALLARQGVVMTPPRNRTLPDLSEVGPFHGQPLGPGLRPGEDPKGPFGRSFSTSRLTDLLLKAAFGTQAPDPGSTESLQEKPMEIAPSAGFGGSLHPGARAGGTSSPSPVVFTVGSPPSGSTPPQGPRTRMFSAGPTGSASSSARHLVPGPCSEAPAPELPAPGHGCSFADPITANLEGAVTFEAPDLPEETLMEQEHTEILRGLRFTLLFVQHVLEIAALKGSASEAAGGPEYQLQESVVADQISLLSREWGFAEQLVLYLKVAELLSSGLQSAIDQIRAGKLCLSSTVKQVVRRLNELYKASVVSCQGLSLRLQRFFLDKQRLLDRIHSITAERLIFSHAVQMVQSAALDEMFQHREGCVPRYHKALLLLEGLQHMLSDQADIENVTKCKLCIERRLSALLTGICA

Compound | IC50
CNC(=O)c1ccccc1Oc1nc(Nc2ccc(OC)cc2)ncc1C(F)(F)F [105a, 2-((2-((4-methoxyphenyl)amino)-5-(trifluoromethyl)pyrimidin-4-yl)oxy)-N-methylbenzamide] | > 2000 nM
COc1ccc(Nc2ncc(C(F)(F)F)c(O)n2)cc1 [105b, 2-((4-methoxyphenyl)amino)-5-(trifluoromethyl)pyrimidin-4-ol] | > 2000 nM
CNC(=O)c1ccccc1Oc1nc(Nc2ccc(Cl)c(Cl)c2)ncc1C(F)(F)F [108a, 2-((2-((3,4-dichlorophenyl)amino)-5-(trifluoromethyl)pyrimidin-4-yl)oxy)-N-methylbenzamide] | > 2000 nM
Oc1nc(Nc2ccc(Cl)c(Cl)c2)ncc1C(F)(F)F [108b, 2-((3,4-dichlorophenyl)amino)-5-(trifluoromethyl)pyrimidin-4-ol] | > 2000 nM
CNC(=O)c1ccccc1Oc1nc(Nc2cc(OC)ccc2OC)ncc1C(F)(F)F [109a, 2-((2-((2,5-dimethoxyphenyl)amino)-5-(trifluoromethyl)pyrimidin-4-yl)oxy)-N-methylbenzamide] | > 2000 nM
COc1ccc(OC)c(Nc2ncc(C(F)(F)F)c(O)n2)c1 [109b, 2-((2,5-dimethoxyphenyl)amino)-5-(trifluoromethyl)pyrimidin-4-ol] | > 2000 nM
CNC(=O)c1ccccc1Oc1nc(Nc2cccc(OC)c2OC)ncc1C(F)(F)F [115a, 2-((2-((2,3-dimethoxyphenyl)amino)-5-(trifluoromethyl)pyrimidin-4-yl)oxy)-N-methylbenzamide] | > 2000 nM
COc1cccc(Nc2ncc(C(F)(F)F)c(O)n2)c1OC [115b, 2-((2,3-dimethoxyphenyl)amino)-5-(trifluoromethyl)pyrimidin-4-ol] | > 2000 nM
CNC(=O)c1ccccc1Oc1nc(Nc2ccccc2SC)ncc1C(F)(F)F [116a, N-methyl-2-((2-((2-(methylthio)phenyl)amino)-5-(trifluoromethyl)pyrimidin-4-yl)oxy)benzamide] | > 2000 nM
CSc1ccccc1Nc1ncc(C(F)(F)F)c(Nc2ccccc2SC)n1 [116b, N^2,N^4-bis(2-(methylthio)phenyl)-5-(trifluoromethyl)pyrimidine-2,4-diamine] | > 2000 nM
O=C1CCc2cc(Nc3ncc(C(F)(F)F)c(Nc4ccccc4N4CCOCC4)n3)ccc2N1 [118a, 6-((4-((2-morpholinophenyl)amino)-5-(trifluoromethyl)pyrimidin-2-yl)amino)-3,4-dihydroquinolin-2(1H)-one] | < 200 nM
O=C1CCc2cc(Nc3nc(Nc4ccccc4N4CCOCC4)ncc3C(F)(F)F)ccc2N1 [118b, 6-((2-((2-morpholinophenyl)amino)-5-(trifluoromethyl)pyrimidin-4-yl)amino)-3,4-dihydroquinolin-2(1H)-one] | > 2000 nM
Oc1ncc(C(F)(F)F)c(Nc2ccccc2N2CCOCC2)n1 [118c, 4-((2-morpholinophenyl)amino)-5-(trifluoromethyl)pyrimidin-2-ol] | > 2000 nM
O=C1CCc2cc(Nc3ncc(C(F)(F)F)c(Nc4ccccc4OC(F)F)n3)ccc2N1 [120a, 6-((4-((2-(difluoromethoxy)phenyl)amino)-5-(trifluoromethyl)pyrimidin-2-yl)amino)-3,4-dihydroquinolin-2(1H)-one] | < 200 nM
FC(F)Oc1ccccc1Nc1ncc(C(F)(F)F)c(Nc2ccccc2OC(F)F)n1 [120b, N^2,N^4-bis(2-(difluoromethoxy)phenyl)-5-(trifluoromethyl)pyrimidine-2,4-diamine] | 200 to 2000 nM
O=C1CCc2cc(Nc3ncc(C(F)(F)F)c(Nc4ccc5c(c4)CCC(=O)N5)n3)ccc2N1 [120c, 6,6′-((5-(trifluoromethyl)pyrimidine-2,4-diyl)bis(azanediyl))bis(3,4-dihydroquinolin-2(1H)-one)] | < 200 nM
COc1cc(N2CCOCC2)ccc1Nc1nc(Nc2ccc3c(c2)CCC(=O)N3)ncc1C(F)(F)F [123a, 6-((4-((2-methoxy-4-morpholinophenyl)amino)-5-(trifluoromethyl)pyrimidin-2-yl)amino)-3,4-dihydroquinolin-2(1H)-one] | < 200 nM
